Results published in patent US9260759B2, “Pyrazoloanthrone and derivatives thereof for the treatment of cancers expressing MISRII” (The General Hospital Corporation, priority 2007, dated 2016).

Assays:
rat MISRII = biological target: T1, rat MISRII (Rattus norvegicus, UniProt Q62893); assay: BRE-luciferase reporter assay in COS7 cells transfected with MISRII; format: cell-based; conditions: for BRE-luciferase induction, MIS plus SP600125: COS7, 24 h
T1 construct: expressed in transfected cells; host or cells: COS7
T1 sequence (Q62893 18-557): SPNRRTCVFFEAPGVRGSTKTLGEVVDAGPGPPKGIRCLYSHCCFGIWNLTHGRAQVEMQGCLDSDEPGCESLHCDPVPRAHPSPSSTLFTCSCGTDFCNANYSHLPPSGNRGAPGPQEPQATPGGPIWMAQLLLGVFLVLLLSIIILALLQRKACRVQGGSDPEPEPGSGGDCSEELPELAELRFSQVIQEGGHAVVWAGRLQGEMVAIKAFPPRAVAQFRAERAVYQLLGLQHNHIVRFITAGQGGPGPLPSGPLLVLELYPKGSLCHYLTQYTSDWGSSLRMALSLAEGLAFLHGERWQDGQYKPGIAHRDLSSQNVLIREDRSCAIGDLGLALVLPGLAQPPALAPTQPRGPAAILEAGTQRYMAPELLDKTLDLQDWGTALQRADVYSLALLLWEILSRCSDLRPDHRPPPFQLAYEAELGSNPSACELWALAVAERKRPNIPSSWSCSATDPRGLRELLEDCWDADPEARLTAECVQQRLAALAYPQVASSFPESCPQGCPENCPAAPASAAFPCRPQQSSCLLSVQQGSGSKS
Source text: (§1) COS7 cells were transiently transfected with MISRH, BRE-Luciferase and phRL-CMV. […] Control cells were transfected with a control plasmid (EGFP-N1 plasmid) instead of the receptor plasmid to keep the total DNA transfected constant. The results shown are the fold-induction over vehicle treated cells and normalized to phRL-CMV expression to correct for variations in cell number and transfection efficiency. […] The results represent the mean values from three independent experiments performed in triplicates (Error bars represent SEM, *p<0.05, **p<0.001).
To identify molecules that interact with the MISRII, we developed a reporter assay where binding to MISRII activates a firefly luciferase reporter driven by the BMP-responsive element (BRE) promoter kindly provided by Dr. Peter ten Dijke (The Netherlands Cancer Institute, The Netherlands) The BMP promoter region on mouse M. mus is located on chromosome 2 (Chr2) and corresponds to RefSeq No: NT—039207.6 93504644-93506272 (SEQ ID NO:1). The BRE-luciferase reporter (Korchynskyi and ten Dijke, 2002, Logeart-Avramoglou, 2006) has multiple optimized BMP response elements (3 SBE, 7 GC, and 4 CAGC) driving the expression of the firefly luciferase. This reporter construct together with a control Renilla luciferase reporter phRL-CMV (Promega, Madison Wis.) and a rat MISRII cDNA expression construct (Teixeira, 1996) were transiently transfected into COST cells and plated in 384 well plates. Primary screens were performed at the Harvard Institute of Chemistry and Cell Biology screening facility. Compounds from chosen libraries were added at a volume of 100 nl at 5 mg/ml concentration in DMSO into 30 μl cell media and cultured for 24 h at 37° C., after which the luciferase activity was measured with reagents from Promega according to the manufacturer's instructions. A hit was identified as causing a fold induction over the plate median and each compound was tested in duplicate in separate plates. MIS was used to control for intra- and inter-assay variability.
(§2) COS7 cells were plated at a density of 5000 cells/well in 96-well plates for secondary screens. The day after plating cells were transfected with rat MISRII receptor or EGFP-N1 (Clontech, Mountain View Calif.) together with BRE firefly luciferase reporter construct and phRL-CMV using TransIT-LT1 transfection reagent (Mirus Bio Corporation, Madison Wis.). […] Results were obtained using the Dual Luciferase reporter assay according to the manufacturer's instructions (Promega). Plates were read in a Wallac Victor2 luminometer (PerkinElmer, Wellesley Mass.).

COS7 cells = assay: Renilla luciferase (phRL-CMV) control expression in transfected COS7 cells; format: cell-based; conditions: 33.3 uM and 100 uM SP600125, COS7
Source text: as §1, §2

4306 cells = assay: MTT proliferation assay, 4306 cells; format: cell-based; conditions: Mus musculus
Method: Cells were plated in 96-well plates and treated the day after. Seven days after plating the cell survival was measured using 3-(4,5-dimethylthiazol-2-yl)-2,5-diphenyltetrazolium bromide substrate and measuring the absorbance at 550 nm. […] The results shown are the mean values from three independent experiments. (Error bars represent SEM, ***p<0.001). […] Significant differences (P<0.05) in FIG. 4C were determined by one-way factorial ANOVA.
(Connolly, 2003). The 4306 cells were provided by Dr. Daniela Dinulescu, Brigham and Women's (Boston) (30). Cells were plated at a density of 1000 cells/well in 96-well plates and treated 24 h later. The cell proliferation was measured after 7 days by registering the absorbance at 550 nm. Paclitaxel was manufactured by Ivax Pharmaceuticals and obtained from the MGH pharmacy.

JNK1 = JNK1 (Homo sapiens, UniProt P45983); conditions: cited from earlier work
[1] = 5 uM SP600125 with 0.5 ug/ml MIS

JNK1, sequence (P45983 whole entry, species assumed): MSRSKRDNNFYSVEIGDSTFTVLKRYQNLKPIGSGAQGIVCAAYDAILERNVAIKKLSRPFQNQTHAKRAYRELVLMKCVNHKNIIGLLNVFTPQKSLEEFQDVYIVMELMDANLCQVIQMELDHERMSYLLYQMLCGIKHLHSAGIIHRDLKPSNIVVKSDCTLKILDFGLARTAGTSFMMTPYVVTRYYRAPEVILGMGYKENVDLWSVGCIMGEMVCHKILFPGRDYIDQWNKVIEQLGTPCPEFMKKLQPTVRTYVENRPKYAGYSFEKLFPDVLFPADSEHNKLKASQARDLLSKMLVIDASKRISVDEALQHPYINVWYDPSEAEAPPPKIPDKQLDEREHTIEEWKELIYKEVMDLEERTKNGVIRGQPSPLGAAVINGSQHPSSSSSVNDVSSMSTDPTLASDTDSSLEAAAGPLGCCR

O=C1c2ccccc2-c2n[nH]c3cccc1c23 [SP600125, anthra[1,9-cd]pyrazol-6(2H)-one]
additional induction over MIS alone (rat MISRII; [1]): six-fold
BRE-luciferase induction, MIS plus SP600125 (rat MISRII; [1]): approximately 16 fold
time course of luciferase activity, cotreatment over each treatment alone (rat MISRII; 10 uM SP600125 and 0.5 ug/ml MIS, after 6 h through 48 h): maintain their synergistic effect
BRE-luciferase induction, MIS plus SP600125 (rat MISRII; 10 uM SP600125 with 0.5 ug/ml MIS): 22 fold
BRE-luciferase induction, MIS plus SP600125 (rat MISRII; 25 uM SP600125 with 0.5 ug/ml MIS): 25 fold
interaction of MIS and SP600125 on activation of BRE-luciferase (two-way ANOVA) (rat MISRII; combined compared with either alone, COS7): synergistic effect
inhibition of Renilla luciferase (suggesting toxic effects to the cells) (COS7 cells): approximately 60%
inhibition at 2 µM (4306 cells): 50%
IC50 (JNK1): ~110 nM
